{"source": "patent US20190210969A1", "about": "“INTRAESOPHAGEAL ADMINISTRATION OF TARGETED NITROXIDE AGENTS FOR PROTECTION AGAINST IONIZING IRRADIATION-INDUCED ESOPHAGITIS” (University of Pittsburgh - Of the Commonwealth System of …, priority 2010, published 2019)", "key": {"[1]": {"experiment": "JP4-039 content of sorted esophageal SP and NSP cells (EPR)", "format": "in vivo, mouse", "conditions": "20 esophagi excised 10 minutes after intraesophageal delivery", "description": "Ten minutes after administration of JP4-039, esophagi were removed, minced, and incubated in a solution of 0.2% Collagenase type II, 0.3% Dispase and 0.025% Trypsin for 45 minutes at 37 degrees Celsius. Cell aggregates were then passed through sequentially smaller needles (to 23-gauge) and filtered with a […] cell strainer into DMEM supplemented with 40% fetal bovine serum. Suspensions were pelleted via centrifugation and resuspended at 10^6 cells/ml in pre-warmed DMEM (2% FBS, 10 mM HEPES). Cells were incubated in 6 μg/ml Hoechst 33342 for 90 minutes to identify SP cells. Verapamil, which inhibits the efflux of Hoechst, was used as a concentration of 50 μM for the purpose of cell gating. Cells were pelleted and resuspended in cold Hank's Balanced Salt Solution (HBSS) (2% FBS, 10 mM HEPES) and incubated with anti-CD45-phycoerythrin (PE)-fluorescein isothiocyanate (FITC) and/or anti-Ter119-PE-Cy7 antibodies at 1:200 dilutions, to discriminate hematopoietic cells. Antibody-treated cells were incubated on ice for 20 minutes, washed in cold HBSS, filtered, pelleted, and resuspended in cold HBSS. […] SP and NSP cells were quantified, sorted into separate collection tubes containing cold HBSS (2% FBS, 10 mM HEPES) and pelleted. […] JP4-039 content in sorted SP and NSP cells was quantified by electron paramagnetic resonance (EPR) analysis using a JEOL-RE1XEPR spectrometer. […]"}, "[2]": {"experiment": "Clearance of intravenously injected JP4-039 measured by EPR", "format": "in vivo, mouse", "design": "dose or concentration left out as unconfirmed", "text": "FIGS. 13A-13B. Pharmacokinetics of clearance of JP4-039 intravenously injected into C57BL/6JHNsd mice in (FIG. 13A) plasma and (FIG. 13B) lung. […] Serum samples were collected and assayed. Each symbol represents an individual mouse. The methods for assay of nitroxide by EPR have been published previously (Borisenko G G, et al. J Am Chem Soc 4(30): 9221-9232, 2004 and Jiang J, et al. A mitochondria-targeted triphenylphosphonium-conjugated nitroxide functions as a radioprotector/mitigator. Radiat Res 172(6): 706-717, 2009).\nMeasurement of JP4-039 nitroxide in serum and in tissues by electron paramagnetic resonance. Electron paramagnetic resonance (EPR) spectra of nitroxide radicals in cells or in mitochondrial fractions were recorded after mixing with acetonitrile (1:1 v/v) after 5 min incubation with 2 mM K3Fe(CN)6 using a JEOL-RE1XEPR spectrometer (JEOL, USA, Inc., Peabody, Mass., USA) under the following conditions: 3350 G center field, 25 G scan range, 0.79 G field modulation, 20 mW microwave power, 0.1 s time constant, 4 min scan time. Under these experimental conditions, nitroxides were not detectably oxidized by […] to EPR-silent oxoamminium cations. Mitochondria-enriched fractions were obtained by differential centrifugation. […] Partitioning efficiency was calculated as a percentage of the initial signal. […] After that, samples were centrifuged at 10,000 g for 5 min, and the pellets washed twice with the incubation buffer and analyzed by EPR as described previously (Borisenko G G, et al. Nitroxides scavenge myeloperoxidase-catayzed thiyl radicals in model systems and in cells. J Am Chem Soc 4(30): 9221-9232, 2004 and Jiang J, et al. A mitochondria-targeted triphenylphosphonium-conjugated nitroxide functions as a radioprotector/mitigator. Radiat Res 172(6): 706-717, 200938-39).\nIntravenous JP4-039 systemic pharmacokinetics and intraesophageal formulation mediated delivery to esophagus. […] JP4-039 was cleared from plasma by 10 min, but was detected in lung (and intestine) for over 30 minutes."}, "[3]": {"test_system": "KM101 human marrow stromal cells", "experiment": "Irradiation survival of KM101 marrow stromal cells (colony assay)", "format": "cell-based", "conditions": "for n (shoulder): 0 to 6 Gy", "description": "FIG. 7 is a graph showing that JP4-039 is an effective mitigator of irradiation damage to KM101 human marrow stromal cells. KM101 cells were incubated in media alone or in JP4-039 ([…]) for one hour before irradiation or 24 hours after irradiation. The cells were irradiated to doses ranging from 0 to 6 Gy and plated in 4 well plates. Seven days later the cells were stained with crystal violet and colonies of greater than 50 cells counted. Cells incubated in JP4-039 either before or after irradiation were more radioresistant as shown by an increased shoulder of n=2.3±0.2 or 2.2±0.2, respectively compared to n of 1.1±0.1 for the KM101 cells (p=0.0309 or 0.0386, respectively)."}}}
{"smiles": "CC(C)C[C@@H](/C=C/CC(=O)NC1CC(C)(C)N([O])C(C)(C)C1)NC(=O)OC(C)(C)C", "note": "[JP4-039, TEMPO-4-yl-(S,E)-5-(tert-butoxycarbonylamino)-7-methyloct-3-enamide]", "values": [{"measurement": "JP4-039 content of sorted SP cell pellet", "setting": "[1]; 101,00 SP cells", "result": 275.1, "unit": "fmol"}, {"measurement": "JP4-039 content of sorted NSP cells", "setting": "[1]; 3,387,00 NSP cells", "result": 221.3, "unit": "fmol"}, {"measurement": "time detected in intestine", "setting": "[2]", "result": "over 30 minutes"}, {"measurement": "time detected in lung", "setting": "[2]", "result": "over 30 minutes"}, {"measurement": "time by which cleared from plasma", "setting": "[2]; intravenous in 100 μl", "result": "≤ 10", "unit": "min"}, {"measurement": "n (shoulder)", "setting": "[3]; 24 hours after irradiation, KM101 alone 1.1±0.1, p=0.0386", "result": "2.2±0.2"}, {"measurement": "Do", "setting": "[3]; before or after irradiation vs media alone", "result": "no significant change"}, {"measurement": "n (shoulder)", "setting": "[3]; for one hour before irradiation, KM101 alone 1.1±0.1, p=0.0309", "result": "2.3±0.2"}]}
